Measured values reported in paper PMC11271513, “Pseudoirreversible inhibition elicits persistent efficacy of a sphingosine 1-phosphate receptor 1 antagonist” (Nature Communications, 2024).

What was measured:
[1] = molecular target: T1, Sphingosine 1-phosphate receptor 1 (S1PR1) (Homo sapiens, UniProt P21453, M124V); assay: functional reversibility assays (internalization, cAMP); assay type: cell-based
T1 construct: HiBiT-tagged human S1PR1 Val124 mutant in HEK293 cells

[2] = molecular target: T2, Sphingosine 1-phosphate receptor 1 (S1PR1) (Homo sapiens, UniProt P21453); assay: GTP binding assay; also functional reversibility and washout dissociation half-life […] h; assay type: biochemical
T2 construct: human S1PR1 in HEK293 cell membranes
T2 sequence (P21453 whole entry): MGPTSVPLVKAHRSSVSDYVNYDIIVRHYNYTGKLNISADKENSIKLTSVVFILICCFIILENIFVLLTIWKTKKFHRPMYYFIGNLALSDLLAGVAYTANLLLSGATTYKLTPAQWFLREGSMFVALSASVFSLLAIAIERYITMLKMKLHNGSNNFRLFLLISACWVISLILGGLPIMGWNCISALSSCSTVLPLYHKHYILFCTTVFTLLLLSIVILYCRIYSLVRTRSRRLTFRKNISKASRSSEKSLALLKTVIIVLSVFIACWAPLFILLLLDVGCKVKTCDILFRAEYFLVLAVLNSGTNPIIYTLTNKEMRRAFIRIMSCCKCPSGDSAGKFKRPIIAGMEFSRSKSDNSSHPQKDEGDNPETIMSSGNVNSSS

T1 sequence (P21453 whole entry M124V): as the sequence (P21453 whole entry) above, with M124V counted along it

IC50 [2]: 6.4 nM
Structure (SMILES): CCN(c1ccc(Cl)c(C(F)(F)F)c1)C(C)c1ccc(C)c(CN2CC(C(=O)O)C2)c1 (racemic) [KSI-6666]
functional reversibility assays (internalization, cAMP) [1]: in the Val124 mutant, pre-bound KSI-6666 was almost completely replaced by the added agonist
